The target in one data set is T1, CYP2E1 (Homo sapiens, UniProt P05181).
T1 construct: from tissue; host or cells: pooled human liver microsomes
The experiment in a line: Direct CYP inhibition assay, pooled human liver microsomes, LC-MS/MS. The class given is in vitro ADME. The settings on record: pooled HLMs, up to 50 μM, chlorzoxazone substrate. As for the experimental part: (§1) Reactions were incubated in eight-well strips placed in an 8 × 12 racks (1.2 ml; VWR, Emeryville, CA). The incubation mixtures (final volume, 200 μL) contained 0.2 mg/mL HLMs, 0.1 M phosphate buffer (pH 7.4), 1 mM NADPH, and various CYP isoform-specific substrate cocktail sets (A set: phenacetin, coumarin, amodiaquine, S-mephenytoin, dextromethorphan, and midazolam; B set: bupropion, tolbutamide, chlorzoxazone, and testosterone). […] Substrates were dissolved and serially diluted with acetonitrile to the required concentration in all experiments. […] The reactions were incubated at 37 °C in a shaking water bath. The reactions were terminated by placing the incubation tubes on ice, adding 200 μL of cold acetonitrile containing carbamazepine (100 nM) and 4-methylumbelliferone (500 nM) as an internal standard after 10 min, and agitating with a vortex mixer before centrifugation. The samples for each enzyme assay were centrifuged at 3,000 × g for 20 min at 4 °C, and supernatants of the individual reaction samples and pooled cocktail incubation samples (A set: B set, 1:1) were analysed using LC-MS/MS.
(§2) Sample injection volume was 10 μL, and separation was performed on an Atlantis™ dC18 column (2.1 × 50 mm i.d., 3 μm; Waters, Milford, MA, USA) and Luna™5u C18 column (2.0 × 30 mm i.d.; Phenomenex, Torrance, CA, USA) with a SecurityGuard™ C18 guard column (2.0 × 4.0 mm i.d.; Phenomenex, Torrance, CA, USA) maintained at 30 °C. The column was pre-equilibrated in 100% v/v solvent A (deionized water containing 0.1% v/v formic acid)/0% v/v solvent B (acetonitrile containing 0.1% v/v formic acid) at a flow rate of 0.4 ml/min. […] Quadrupoles Q1 and Q3 were set on unit resolution. The samples were analysed via multiple reaction monitoring (MRM) and enhanced product ion (EPI) scan mode. The turbo ion spray interface was operated in the positive ion mode at 5,500 V. The operating conditions were determined as follows: ion source temperature, 600 °C; nebulising gas flow, 50 L/min; auxiliary gas flow, 4.0 L/min; curtain gas flow, 20 L/min; collision gas (nitrogen) pressure 3.6 × 10^−5 Torr. Nitrogen gas was used for CUR, CAD, and NEB. The MRM transitions, collision energies and retention time were determined for each metabolite. The samples were analysed via MRM as described in our previous study. The scan dwell time was set at 0.08 s for every channel. Data acquisition and analysis was performed using the Analyst™ software (version 1.5.2; Applied Biosystems, Foster City, CA, USA).
A general note: Liver microsomes are vesicles of endoplasmic reticulum, rich in cytochrome P450 enzymes.

The next data set addresses T2, CYP2D6 (Homo sapiens, UniProt P10635).
T2 construct: from tissue; host or cells: pooled human liver microsomes
Described as above. The settings on record: pooled HLMs, up to 50 μM, dextromethorphan substrate. The class given is in vitro ADME. Here is the method: as §1, §2

A further data set has as its target T3, CYP2C19 (Homo sapiens, UniProt P33261).
T3 construct: from tissue; host or cells: pooled human liver microsomes
Described as above. The class given is in vitro ADME. To be noted: pooled HLMs, up to 50 μM, S-mephenytoin substrate. As for the experimental part: as §1, §2

The next data set has as its target T4, CYP2C9 (Homo sapiens, UniProt P11712).
T4 construct: from tissue; host or cells: pooled human liver microsomes
The data set is described as above. The settings on record: pooled HLMs, up to 50 μM, tolbutamide substrate. The class given is in vitro ADME. As for the experimental part:
as §1, §2

The next data set addresses T5, CYP2C8 (Homo sapiens, UniProt P10632).
T5 construct: from tissue; host or cells: pooled human liver microsomes
T5 sequence (P10632 1-490): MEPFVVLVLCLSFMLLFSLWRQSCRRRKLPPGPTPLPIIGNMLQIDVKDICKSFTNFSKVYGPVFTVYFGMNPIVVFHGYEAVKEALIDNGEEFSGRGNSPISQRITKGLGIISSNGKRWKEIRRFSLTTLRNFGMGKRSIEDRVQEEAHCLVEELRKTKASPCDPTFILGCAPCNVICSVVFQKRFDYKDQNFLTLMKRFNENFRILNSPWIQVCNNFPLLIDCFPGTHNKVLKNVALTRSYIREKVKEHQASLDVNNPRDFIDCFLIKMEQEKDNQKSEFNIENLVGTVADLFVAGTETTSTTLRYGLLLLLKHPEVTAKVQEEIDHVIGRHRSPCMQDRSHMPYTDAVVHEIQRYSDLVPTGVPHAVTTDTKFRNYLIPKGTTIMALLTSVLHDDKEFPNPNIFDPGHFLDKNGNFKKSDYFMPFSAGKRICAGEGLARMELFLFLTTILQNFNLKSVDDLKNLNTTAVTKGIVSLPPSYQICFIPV
Described as above. The class given is in vitro ADME. The settings on record: pooled HLMs, up to 50 μM, amodiaquine substrate. Here is the method:
as §1, §2

For another data set, the system named is IP6K. To be noted: [ATP] = 1 mM; cited from earlier work.

T4 sequence (P11712 whole entry): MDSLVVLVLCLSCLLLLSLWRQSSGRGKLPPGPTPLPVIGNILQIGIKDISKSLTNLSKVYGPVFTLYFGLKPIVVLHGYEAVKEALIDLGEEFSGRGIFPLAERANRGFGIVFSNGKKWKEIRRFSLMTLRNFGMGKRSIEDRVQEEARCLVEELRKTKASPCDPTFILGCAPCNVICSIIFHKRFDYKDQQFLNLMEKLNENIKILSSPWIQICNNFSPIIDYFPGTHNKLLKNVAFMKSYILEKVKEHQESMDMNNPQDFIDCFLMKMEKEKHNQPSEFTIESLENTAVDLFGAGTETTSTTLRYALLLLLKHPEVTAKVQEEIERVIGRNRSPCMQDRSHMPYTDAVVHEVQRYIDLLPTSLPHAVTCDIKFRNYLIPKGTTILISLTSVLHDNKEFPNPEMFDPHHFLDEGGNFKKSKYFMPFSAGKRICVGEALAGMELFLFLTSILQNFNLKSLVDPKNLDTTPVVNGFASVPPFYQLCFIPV
T2 sequence (P10635 whole entry): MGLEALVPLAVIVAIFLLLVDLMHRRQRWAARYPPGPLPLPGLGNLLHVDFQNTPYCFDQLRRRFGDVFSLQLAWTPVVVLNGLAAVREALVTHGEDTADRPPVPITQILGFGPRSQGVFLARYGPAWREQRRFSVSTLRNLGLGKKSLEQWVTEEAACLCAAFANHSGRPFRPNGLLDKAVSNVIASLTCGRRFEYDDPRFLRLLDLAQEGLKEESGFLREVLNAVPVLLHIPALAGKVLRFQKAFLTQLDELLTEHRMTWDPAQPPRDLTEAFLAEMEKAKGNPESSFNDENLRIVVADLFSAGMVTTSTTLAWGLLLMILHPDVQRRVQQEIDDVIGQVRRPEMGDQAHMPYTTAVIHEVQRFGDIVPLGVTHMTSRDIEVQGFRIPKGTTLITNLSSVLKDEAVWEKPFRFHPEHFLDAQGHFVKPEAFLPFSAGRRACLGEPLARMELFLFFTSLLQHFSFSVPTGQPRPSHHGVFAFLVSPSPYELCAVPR
T3 sequence (P33261 whole entry): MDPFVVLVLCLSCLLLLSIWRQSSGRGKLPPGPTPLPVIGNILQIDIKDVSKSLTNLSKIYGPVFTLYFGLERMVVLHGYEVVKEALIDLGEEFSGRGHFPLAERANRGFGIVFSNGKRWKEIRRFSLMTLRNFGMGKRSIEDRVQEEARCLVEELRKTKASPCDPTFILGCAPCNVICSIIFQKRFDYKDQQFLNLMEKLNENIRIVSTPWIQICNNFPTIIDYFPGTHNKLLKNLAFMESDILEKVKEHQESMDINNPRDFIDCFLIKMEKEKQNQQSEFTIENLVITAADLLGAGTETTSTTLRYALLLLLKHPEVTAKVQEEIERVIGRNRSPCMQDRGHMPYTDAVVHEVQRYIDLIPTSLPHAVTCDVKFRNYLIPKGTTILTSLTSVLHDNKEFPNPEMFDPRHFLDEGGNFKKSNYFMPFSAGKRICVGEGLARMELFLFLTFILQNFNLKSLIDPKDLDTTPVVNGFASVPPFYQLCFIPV
T1 sequence (P05181 whole entry): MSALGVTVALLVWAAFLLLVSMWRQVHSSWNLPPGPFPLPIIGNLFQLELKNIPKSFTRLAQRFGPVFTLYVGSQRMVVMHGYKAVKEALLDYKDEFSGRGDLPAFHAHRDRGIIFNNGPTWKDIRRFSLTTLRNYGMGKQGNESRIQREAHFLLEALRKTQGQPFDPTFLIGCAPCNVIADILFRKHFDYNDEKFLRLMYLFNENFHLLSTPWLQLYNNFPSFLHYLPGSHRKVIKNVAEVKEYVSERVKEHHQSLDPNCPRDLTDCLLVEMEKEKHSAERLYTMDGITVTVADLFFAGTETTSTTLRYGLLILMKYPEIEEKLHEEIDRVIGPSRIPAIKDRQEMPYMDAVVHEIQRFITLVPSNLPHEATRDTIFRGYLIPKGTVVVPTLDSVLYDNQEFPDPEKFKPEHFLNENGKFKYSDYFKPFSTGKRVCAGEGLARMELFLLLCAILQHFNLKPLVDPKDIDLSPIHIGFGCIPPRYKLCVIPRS

On to `O=[N+]([O-])c1ccc(CNc2nc(NCc3cccc(C(F)(F)F)c3)nc3[nH]cnc23)cc1` [TNP, N^6-[(4-nitrophenyl)methyl]-N^2-[[3-(trifluoromethyl)phenyl]methyl]-9H-purine-2,6-diamine], for which the “inhibitory effect on CYP2E1” value on CYP2E1 is on record as “no inhibitory effect”. The “inhibitory effect on CYP2D6” value against CYP2D6 is recorded as “no inhibitory effect”. Also, on CYP2C19, the “inhibitory effect on CYP2C19” value is reported as “no inhibitory effect”. Also, the “inhibitory effect on CYP2C9” value against CYP2C9 was “no inhibitory effect”. Moreover, the “inhibitory effect on CYP2C8” value on CYP2C8 was “no inhibitory effect”. In addition, in the data set on IP6K, the IC50 (as a rule, the concentration that gives 50% inhibition) is 470 nM.

The record behind these values is paper PMC8667942 (Journal of Enzyme Inhibition and Medicinal Chemistry, 2021).
